Target: T1, FUS RRM domain (Homo sapiens, UniProt P35637)
T1 construct: RRM domain (285–370)
T1 sequence (P35637 284-371 limits assumed): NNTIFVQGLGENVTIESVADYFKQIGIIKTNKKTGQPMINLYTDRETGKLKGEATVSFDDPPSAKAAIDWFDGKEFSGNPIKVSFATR
Assay: 1H-15N HSQC NMR titration, one-site fit of chemical shift differences
Format: binding

Row | Kd | SMILES
1 | 17.2 ± 2.61 mM | Nc1ncnc2c1ncn2[C@@H]1O[C@H](COP(=O)(O)O)[C@@H](O)[C@H]1O [AMP]
2 | 12.6 ± 3.53 mM | O=P(O)(O)OP(=O)(O)OP(=O)(O)O [PPP]

Row | SMILES | Kd
3 | Nc1ncnc2c1ncn2[C@@H]1O[C@H](COP(=O)(O)OP(=O)(O)OP(=O)(O)O)[C@@H](O)[C@H]1O [ATP] | 3.77 ± 0.49 mM

— PMC6586847, “ATP binds and inhibits the neurodegeneration-associated fibrillization of the FUS RRM domain” (Communications Biology, 2019)
